From patent publication US20090099195A1 (ASTRAZENECA AB, priority 2007, published 2009)

The compounds below were run against T1, hP2X3 (human Purinergic P2X receptors subtype 3), clone A (Homo sapiens, UniProt P56373) (assay: hP2X3 FLIPR calcium (Fluo-4) antagonist assay, clone A). Details: Human P2X3 FLIPR Clone A Mean IC50 (nM), RLE cells expressing hP2X3 clone A (AB016608); agonist 500 nM α,β-methylene-ATP.
T1 sequence (P56373 1-397): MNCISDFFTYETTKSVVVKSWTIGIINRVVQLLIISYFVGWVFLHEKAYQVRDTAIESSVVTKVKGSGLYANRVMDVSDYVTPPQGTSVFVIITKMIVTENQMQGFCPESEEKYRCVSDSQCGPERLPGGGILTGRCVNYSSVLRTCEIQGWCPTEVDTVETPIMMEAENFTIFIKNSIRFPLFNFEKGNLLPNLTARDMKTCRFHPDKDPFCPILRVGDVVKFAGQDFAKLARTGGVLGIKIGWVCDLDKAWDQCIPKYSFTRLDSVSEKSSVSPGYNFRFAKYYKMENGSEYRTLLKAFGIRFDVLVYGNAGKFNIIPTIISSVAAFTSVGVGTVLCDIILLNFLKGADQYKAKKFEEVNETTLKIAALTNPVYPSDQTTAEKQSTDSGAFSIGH
An IC50 of 1050 nM was found for CC(=O)N1CCN(c2nc3c(c(N(C)Cc4cc5cc(F)ccc5cn4)n2)CN(C(C)C)C3=O)CC1 [Example 349, 2-(4-acetylpiperazin-1-yl)-4-(((6-fluoroisoquinolin-3-yl)methyl)(methyl)amino)-6-isopropyl-5H-pyrrolo[3,4-d]pyrimidin-7(6H)-one] in this work.
An IC50 of 327 nM was found for CCOc1ccc([C@@H](C)Nc2nc(N3CCN(CC)C(=O)C3)nc3c2CN(C(C)C)C3=O)cc1 [Example 361, (R)-4-(1-(4-ethoxyphenyl)ethylamino)-2-(4-ethyl-3-oxopiperazin-1-yl)-6-isopropyl-5H-pyrrolo[3,4-d]pyrimidin-7(6H)-one] in this work.
An IC50 of 102 nM was found for CC(=O)N1CCN(c2nc(N[C@H](C)c3ccc(C4CC4)cc3)c3c(n2)C(=O)N(C(C)C)C3)CC1 [Example 192, (R)-2-(4-acetylpiperazin-1-yl)-4-(1-(4-cyclopropylphenyl)ethylamino)-6-isopropyl-5H-pyrrolo[3,4-d]pyrimidin-7(6H)-one] in this work.
For CC(=O)N1CCN(c2nc(N[C@H](C)c3ccc(CN(C)C)cc3)c3c(n2)C(=O)N(C(C)C)C3)CC1 [Example 358, (R)-2-(4-acetylpiperazin-1-yl)-4-(1-(4-((dimethylamino)methyl)phenyl)ethylamino)-6-isopropyl-5H-pyrrolo[3,4-d]pyrimidin-7(6H)-one], the IC50 was > 30000 nM.
An IC50 of 574 nM was found for CCOc1ccc([C@@H](C)Nc2nc(N3CCN(CC(F)(F)F)C(=O)C3)nc3c2CN(C(C)C)C3=O)cc1 [Example 363, (R)-4-(1-(4-ethoxyphenyl)ethylamino)-6-isopropyl-2-(3-oxo-4-(2,2,2-trifluoroethyl)piperazin-1-yl)-5H-pyrrolo[3,4-d]pyrimidin-7(6H)-one] in this work.
An IC50 of 195 nM was found for CCOc1ncc([C@@H](C)Nc2nc(N3CCN(C(C)=O)CC3)nc3c2CN(C(C)C)C3=O)cc1C [Example 331, (R)-2-(4-acetylpiperazin-1-yl)-4-(1-(6-ethoxy-5-methylpyridin-3-yl)ethylamino)-6-isopropyl-5H-pyrrolo[3,4-d]pyrimidin-7(6H)-one] in this work.
An IC50 of 61.1 nM was found for CC(=O)N1CCN(c2nc3c(c(N(C)Cc4cc5ccc(C)cc5cn4)n2)CN(C(C)C)C3=O)CC1 [Example 353, 2-(4-acetylpiperazin-1-yl)-6-isopropyl-4-(methyl((7-methylisoquinolin-3-yl)methyl)amino)-5H-pyrrolo[3,4-d]pyrimidin-7(6H)-one] in this work.
An IC50 of 2280 nM was found for CC(=O)N1CCN(c2nc3c(c(N(C)Cc4cnn(-c5ccc(F)cc5)c4)n2)CN(C(C)C)C3=O)CC1 [Example 339, 2-(4-acetylpiperazin-1-yl)-4-[{[1-(4-fluorophenyl)-1H-pyrazol-4-yl]methyl}(methyl)amino]-6-(1-methylethyl)-5,6-dihydro-7H-pyrrolo[3,4-d]pyrimidin-7-one] in this work.
An IC50 of 283 nM was found for CCOc1ncc([C@@H](C)Nc2nc(N3CCN(C(C)=O)CC3)nc3c2CN(C(C)C)C3=O)cc1Cl [Example 194, (R)-2-(4-acetylpiperazin-1-yl)-4-(1-(5-chloro-6-ethoxypyridin-3-yl)ethylamino)-6-isopropyl-5H-pyrrolo[3,4-d]pyrimidin-7(6H)-one] in this work.
An IC50 of 163 nM was found for CCOc1ccc([C@@H](C)Nc2nc(N3CCN(C(C)=O)CC3)nc3c2CN(C(C)C)C3=O)c(OCC)c1 [Example 357, (R)-2-(4-acetylpiperazin-1-yl)-4-(1-(2,4-diethoxyphenyl)ethylamino)-6-isopropyl-5H-pyrrolo[3,4-d]pyrimidin-7(6H)-one] in this work.
An IC50 of 235 nM was found for CCCOc1ccc([C@@H](C)Nc2nc(N3CCN(C(C)=O)CC3)nc3c2CN(C(C)C)C3=O)cc1F [Example 193, (R)-2-(4-acetylpiperazin-1-yl)-4-(1-(3-fluoro-4-propoxyphenyl)ethylamino)-6-isopropyl-5H-pyrrolo[3,4-d]pyrimidin-7(6H)-one] in this work.
An IC50 of 1140 nM was found for COc1ccc(C2CCCN2c2nc(N3CCN(C(C)=O)CC3)nc3c2CN(C(C)C)C3=O)cc1 (stereo not shown) [Example 299, 2-(4-acetylpiperazin-1-yl)-4-[2-(4-methoxyphenyl)pyrrolidin-1-yl]-6-(1-methylethyl)-5,6-dihydro-7H-pyrrolo[3,4-d]pyrimidin-7-one] in this work.
An IC50 of 29.2 nM was found for CC(=O)N1CCN(c2nc3c(c(N(C)Cc4cc5ccc(Cl)cc5cn4)n2)CN(C(C)C)C3=O)CC1 [Example 341, 2-(4-acetylpiperazin-1-yl)-4-(((7-chloroisoquinolin-3-yl)methyl)(methyl)amino)-6-isopropyl-5H-pyrrolo[3,4-d]pyrimidin-7(6H)-one] in this work.
An IC50 of 2970 nM was found for CCOc1ccc(CN(C)c2nc(N3CCN(C(C)=O)CC3)nc3c2CN(C(C)C)C3=O)c(OC)c1 [Example 334, 2-(4-acetylpiperazin-1-yl)-4-((4-ethoxy-2-methoxybenzyl)(methyl)amino)-6-isopropyl-5H-pyrrolo[3,4-d]pyrimidin-7(6H)-one] in this work.
An IC50 of 410 nM was found for CC(=O)N1CCN(c2nc(NCc3ccc4c(c3)CC(C)O4)c3c(n2)C(=O)N(C(C)C)C3)CC1 (stereo not shown) [Example 323, 2-(4-acetylpiperazin-1-yl)-6-isopropyl-4-((2-methyl-2,3-dihydrobenzofuran-5-yl)methylamino)-5H-pyrrolo[3,4-d]pyrimidin-7(6H)-one] in this work.
An IC50 of 1900 nM was found for CC(=O)N1CCN(c2nc(N[C@H](C)c3ccc(OCC4CC4)c(F)c3)c3c(n2)C(=O)N(C(C)C)C3)CC1 [Example 322, (R)-2-(4-acetylpiperazin-1-yl)-4-(1-(4-(cyclopropylmethoxy)-3-fluorophenyl)ethylamino)-6-isopropyl-5H-pyrrolo[3,4-d]pyrimidin-7(6H)-one] in this work.
An IC50 of 2720 nM was found for CC(=O)N1CCN(c2nc3c(c(N(C)Cc4cc5cc(Cl)ccc5cn4)n2)CN(C(C)C)C3=O)CC1 [Example 348, 2-(4-acetylpiperazin-1-yl)-4-(((6-chloroisoquinolin-3-yl)methyl)(methyl)amino)-6-isopropyl-5H-pyrrolo[3,4-d]pyrimidin-7(6H)-one] in this work.
An IC50 of 1060 nM was found for CC(=O)N1CCN(c2nc(NCc3ccc4ccn(C)c4c3)c3c(n2)C(=O)N(C(C)C)C3)CC1 [Example 356, 2-(4-acetylpiperazin-1-yl)-6-(1-methylethyl)-4-{[(1-methyl-1H-indol-6-yl)methyl]amino}-5,6-dihydro-7H-pyrrolo[3,4-d]pyrimidin-7-one] in this work.
An IC50 of 225 nM was found for CCOc1ccc(CNc2nc(N3CCN(C(C)=O)CC3)nc3c2CN(C(C)C)C3=O)c(OC)c1 [Example 335, 2-(4-acetylpiperazin-1-yl)-4-(4-ethoxy-2-methoxybenzylamino)-6-isopropyl-5H-pyrrolo[3,4-d]pyrimidin-7(6H)-one] in this work.
In the case of CC(=O)N1CCN(c2nc3c(c(N(C)Cc4ccc5c(c4)OC(F)(F)O5)n2)CN(C(C)C)C3=O)CC1 [Example 360, 2-(4-acetylpiperazin-1-yl)-4-(((2,2-difluorobenzo[d][1,3]dioxol-5-yl)methyl)(methyl)amino)-6-isopropyl-5H-pyrrolo[3,4-d]pyrimidin-7(6H)-one], the IC50 is reported as > 30000 nM.
An IC50 of 494 nM was found for CC(=O)N1CCN(c2nc(NCc3ccc4c(ccn4C)c3)c3c(n2)C(=O)N(C(C)C)C3)CC1 [Example 354, 2-(4-acetylpiperazin-1-yl)-6-(1-methylethyl)-4-{[(1-methyl-1H-indol-5-yl)methyl]amino}-5,6-dihydro-7H-pyrrolo[3,4-d]pyrimidin-7-one] in this work.
An IC50 of 795 nM was found for CC(C)N1Cc2c(nc(N3CCN(CC(F)(F)F)C(=O)C3)nc2N(C)Cc2cc3ccccc3cn2)C1=O [Example 364, 6-isopropyl-4-((isoquinolin-3-ylmethyl)(methyl)amino)-2-(3-oxo-4-(2,2,2-trifluoroethyl)piperazin-1-yl)-5H-pyrrolo[3,4-d]pyrimidin-7(6H)-one] in this work.
An IC50 of 2710 nM was found for CC(C)N1Cc2c(NC(C)(C)Cc3ccc(F)cc3)nc(N3CCn4ccnc4C3)nc2C1=O [Example 340, 2-(5,6-dihydroimidazo[1,2-a]pyrazin-7(8H)-yl)-4-{[2-(4-fluorophenyl)-1,1-dimethylethyl]amino}-6-(1-methylethyl)-5,6-dihydro-7H-pyrrolo[3,4-d]pyrimidin-7-one] in this work.
An IC50 of 179 nM was found for CC(=O)N1CCN(c2nc(NC(C)c3ccc4c(c3)CC(C)O4)c3c(n2)C(=O)N(C(C)C)C3)CC1 (stereo not shown) [Example 324, 2-(4-acetylpiperazin-1-yl)-6-isopropyl-4-(1-(2-methyl-2,3-dihydrobenzofuran-5-yl)ethylamino)-5H-pyrrolo[3,4-d]pyrimidin-7(6H)-one] in this work.
An IC50 of 511 nM was found for CC(=O)N1CCN(c2nc(N[C@H](C)c3ccc4c(c3)OC(F)(F)O4)c3c(n2)C(=O)N(C(C)C)C3)CC1 [Example 359, (R)-2-(4-acetylpiperazin-1-yl)-4-(1-(2,2-difluorobenzo[d][1,3]dioxol-5-yl)ethylamino)-6-isopropyl-5H-pyrrolo[3,4-d]pyrimidin-7(6H)-one] in this work.
An IC50 of 1230 nM was found for CC(=O)N1CCN(c2nc3c(c(N(C)Cc4cc5cc(C)ccc5cn4)n2)CN(C(C)C)C3=O)CC1 [Example 342, 2-(4-acetylpiperazin-1-yl)-6-isopropyl-4-(methyl((6-methylisoquinolin-3-yl)methyl)amino)-5H-pyrrolo[3,4-d]pyrimidin-7(6H)-one] in this work.
An IC50 of 79.5 nM was found for COc1cc(OC(C)C)ccc1CNc1nc(N2CCN(C(C)=O)CC2)nc2c1CN(C(C)C)C2=O [Example 337, 2-(4-acetylpiperazin-1-yl)-4-(4-isopropoxy-2-methoxybenzylamino)-6-isopropyl-5H-pyrrolo[3,4-d]pyrimidin-7(6H)-one] in this work.
An IC50 of 1610 nM was found for CCOc1cc(OC)ccc1CN(C)c1nc(N2CCN(C(C)=O)CC2)nc2c1CN(C(C)C)C2=O [Example 336, 2-(4-acetylpiperazin-1-yl)-4-((2-ethoxy-4-methoxybenzyl)(methyl)amino)-6-isopropyl-5H-pyrrolo[3,4-d]pyrimidin-7(6H)-one] in this work.
